Read-outs that look alike come from different tables or passages of the source.
Legend:
Type in all cases: biochemical
MMP-9h = MMP-9h (Homo sapiens (Human), UniProt P14780); test: Inhibition constant (Ki) on MMP-9h; details: human MMP-9
Excerpt: (§1) The inhibition constant Ki of these compounds has been determined according to the protocol described by Devel et al, 2006, J. Biol. Chem. (7).
(§2) In this table I and also in table II below, “h” corresponds to human. All of the compounds have therefore been evaluated on human MMPs.

MMP-10h = MMP-10h (Homo sapiens (Human), UniProt P09238); test: Inhibition constant (Ki) on MMP-10h; details: human MMP-10
MMP-8h = MMP-8h (Homo sapiens (Human), UniProt P22894); test: Inhibition constant (Ki) on MMP-8h; details: human MMP-8
MMP-2h = MMP-2h (Homo sapiens (Human), UniProt P08253); test: Inhibition constant (Ki) on MMP-2h; details: human MMP-2
Excerpt: as §1, §2

MMP-13h = MMP-13h (Homo sapiens (Human), UniProt P45452); test: Inhibition constant (Ki) on MMP-13h; details: human MMP-13
Excerpt: as §1, §2

MMP-12h = MMP-12h (Homo sapiens (Human), UniProt P39900); test: Inhibition constant (Ki) on MMP-12h; details: human MMP-12
MMP-14h = MMP-14h (Homo sapiens (Human), UniProt P50281); test: Inhibition constant (Ki) on MMP-14h; details: human MMP-14
Excerpt: as §1, §2

MMP-3h = MMP-3h (Homo sapiens (Human), UniProt P08254); test: Inhibition constant (Ki) on MMP-3h; details: human MMP-3
Excerpt: as §1, §2

MMP-10h, sequence (P09238 99-476): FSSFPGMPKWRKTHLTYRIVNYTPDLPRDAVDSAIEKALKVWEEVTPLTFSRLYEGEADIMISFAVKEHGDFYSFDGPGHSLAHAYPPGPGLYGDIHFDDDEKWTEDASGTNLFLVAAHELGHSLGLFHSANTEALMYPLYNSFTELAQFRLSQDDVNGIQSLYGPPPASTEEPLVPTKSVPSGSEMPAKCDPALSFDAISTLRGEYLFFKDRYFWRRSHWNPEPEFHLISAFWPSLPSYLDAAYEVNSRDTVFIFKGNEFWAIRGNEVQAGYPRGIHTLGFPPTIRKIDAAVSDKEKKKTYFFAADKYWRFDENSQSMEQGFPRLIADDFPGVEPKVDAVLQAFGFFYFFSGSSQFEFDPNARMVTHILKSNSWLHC
MMP-9h, sequence (P14780 94-707): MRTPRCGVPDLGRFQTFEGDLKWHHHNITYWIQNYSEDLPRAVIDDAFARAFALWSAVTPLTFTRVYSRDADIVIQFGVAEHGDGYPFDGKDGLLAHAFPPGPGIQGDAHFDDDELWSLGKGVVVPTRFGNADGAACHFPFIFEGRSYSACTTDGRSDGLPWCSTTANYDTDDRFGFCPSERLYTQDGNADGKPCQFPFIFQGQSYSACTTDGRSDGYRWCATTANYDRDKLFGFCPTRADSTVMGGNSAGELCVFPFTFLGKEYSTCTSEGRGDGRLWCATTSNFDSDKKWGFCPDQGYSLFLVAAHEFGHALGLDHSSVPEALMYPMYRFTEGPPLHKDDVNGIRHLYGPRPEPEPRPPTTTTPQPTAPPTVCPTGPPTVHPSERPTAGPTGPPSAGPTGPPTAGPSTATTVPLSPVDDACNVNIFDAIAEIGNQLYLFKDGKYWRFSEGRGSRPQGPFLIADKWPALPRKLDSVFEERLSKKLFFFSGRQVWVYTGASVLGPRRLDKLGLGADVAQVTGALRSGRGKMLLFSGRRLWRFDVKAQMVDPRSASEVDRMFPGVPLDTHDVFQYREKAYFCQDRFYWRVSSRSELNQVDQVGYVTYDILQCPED
MMP-12h, sequence (P39900 106-470): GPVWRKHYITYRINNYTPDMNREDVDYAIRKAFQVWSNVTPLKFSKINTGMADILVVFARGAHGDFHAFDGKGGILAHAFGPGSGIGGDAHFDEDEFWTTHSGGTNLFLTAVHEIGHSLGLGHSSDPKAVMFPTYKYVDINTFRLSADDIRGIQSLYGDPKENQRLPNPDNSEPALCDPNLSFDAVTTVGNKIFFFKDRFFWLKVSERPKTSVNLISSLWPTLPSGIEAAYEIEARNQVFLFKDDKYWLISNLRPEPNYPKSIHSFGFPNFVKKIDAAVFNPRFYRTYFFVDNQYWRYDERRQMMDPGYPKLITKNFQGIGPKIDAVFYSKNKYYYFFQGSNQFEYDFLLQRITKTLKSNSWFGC
MMP-3h, sequence (P08254 100-477): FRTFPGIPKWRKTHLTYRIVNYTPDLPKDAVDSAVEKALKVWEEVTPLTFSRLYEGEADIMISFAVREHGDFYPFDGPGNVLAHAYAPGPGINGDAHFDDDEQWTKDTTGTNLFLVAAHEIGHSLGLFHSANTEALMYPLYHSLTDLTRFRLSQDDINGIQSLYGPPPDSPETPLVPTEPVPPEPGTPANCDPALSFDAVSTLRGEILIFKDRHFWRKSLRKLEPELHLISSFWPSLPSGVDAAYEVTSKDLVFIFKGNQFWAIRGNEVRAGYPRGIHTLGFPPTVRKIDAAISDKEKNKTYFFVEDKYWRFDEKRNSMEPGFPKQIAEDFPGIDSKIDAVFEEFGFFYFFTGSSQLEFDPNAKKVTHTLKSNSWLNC
MMP-2h, sequence (P08253 110-660): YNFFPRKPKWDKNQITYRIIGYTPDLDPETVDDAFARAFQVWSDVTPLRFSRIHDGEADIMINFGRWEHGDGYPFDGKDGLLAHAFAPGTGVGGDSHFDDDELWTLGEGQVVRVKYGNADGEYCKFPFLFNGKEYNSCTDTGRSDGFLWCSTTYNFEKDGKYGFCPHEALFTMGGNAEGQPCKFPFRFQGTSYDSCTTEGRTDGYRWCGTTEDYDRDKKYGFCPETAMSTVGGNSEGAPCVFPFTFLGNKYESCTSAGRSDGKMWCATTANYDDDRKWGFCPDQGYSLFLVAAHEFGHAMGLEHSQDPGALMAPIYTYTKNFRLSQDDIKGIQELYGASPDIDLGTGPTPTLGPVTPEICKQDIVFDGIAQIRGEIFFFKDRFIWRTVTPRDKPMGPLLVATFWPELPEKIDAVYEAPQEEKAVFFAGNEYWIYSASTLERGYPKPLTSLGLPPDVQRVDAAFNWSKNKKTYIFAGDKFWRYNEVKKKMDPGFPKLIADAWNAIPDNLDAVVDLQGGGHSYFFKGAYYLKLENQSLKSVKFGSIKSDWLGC
MMP-8h, sequence (P22894 101-467): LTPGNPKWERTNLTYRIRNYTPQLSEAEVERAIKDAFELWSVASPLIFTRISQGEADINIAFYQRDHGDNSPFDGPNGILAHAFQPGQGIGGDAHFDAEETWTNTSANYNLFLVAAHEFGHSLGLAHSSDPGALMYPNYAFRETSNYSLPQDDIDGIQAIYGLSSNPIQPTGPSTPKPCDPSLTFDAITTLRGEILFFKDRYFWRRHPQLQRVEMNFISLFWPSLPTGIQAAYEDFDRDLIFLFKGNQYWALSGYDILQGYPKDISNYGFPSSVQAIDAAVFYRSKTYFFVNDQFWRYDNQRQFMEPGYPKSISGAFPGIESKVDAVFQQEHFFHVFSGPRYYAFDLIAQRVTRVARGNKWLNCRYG

O=C(O)CC[C@H](NC(=O)CCc1ccc(-c2ccccc2)cc1)C(=O)N1CCC[C@@H](CC(=O)O)C1 [Compound 51, (S)-4-(3-(biphenyl-4-yl)propanamido)-5-((S)-3-(carboxymethyl)piperidin-1-yl)-5-oxopentanoic acid]
Ki (MMP-9h; read-out: Ki MMP-9h): > 1000 nM | Ki (MMP-10h; read-out: Ki MMP-10h): > 10000 nM | Ki (MMP-8h; read-out: Ki MMP-8h): 929 nM | Ki (MMP-2h; read-out: Ki MMP-2h): > 1000 nM | Ki (MMP-13h; read-out: Ki MMP-13h): > 1000 nM | Ki (MMP-12h; read-out: Ki MMP-12h): 259 nM | Ki (MMP-14h; read-out: Ki MMP-14h): > 5000 nM | Ki (MMP-3h; read-out: Ki MMP-3h): > 10000 nM

NC(=O)[C@H](CCC(=O)O)NC(=O)[C@H](CCC(=O)O)NC(=O)CCc1ccc(-c2csnn2)cc1 [Compound 35, (S)-4-(3-(4-(1,2,3-thiadiazol-4-yl)phenyl)propanamido)-5-((S)-1-amino-4-carboxy-1-oxobutan-2-ylamino)-5-oxopentanoic acid]
Ki (MMP-9h): 199 nM | Ki (MMP-10h): 679 nM | Ki (MMP-8h): 231 nM | Ki (MMP-2h): 442 nM | Ki (MMP-13h): 212 nM | Ki (MMP-12h): 158 nM | Ki (MMP-14h): 438 nM | Ki (MMP-3h): 281 nM

NC(=O)[C@H](CC(=O)O)NC(=O)[C@H](CCC(=O)O)NC(=O)CCc1ccc(-c2ccccc2)cc1 [Compound 45, (S)-5-((S)-1-amino-3-carboxy-1-oxopropan-2-ylamino)-4-(3-(biphenyl-4-yl)propanamido)-5-oxopentanoic acid]
Ki (MMP-9h; read-out: Ki MMP-9h): > 1000 nM | Ki (MMP-10h; read-out: Ki MMP-10h): > 1000 nM | Ki (MMP-8h; read-out: Ki MMP-8h): 233 nM | Ki (MMP-2h; read-out: Ki MMP-2h): 896 nM | Ki (MMP-13h; read-out: Ki MMP-13h): > 1000 nM | Ki (MMP-12h; read-out: Ki MMP-12h): 37 nM | Ki (MMP-14h; read-out: Ki MMP-14h): > 5000 nM | Ki (MMP-3h; read-out: Ki MMP-3h): > 5000 nM

NC(=O)[C@H](CC(=O)O)NC(=O)[C@H](CCC(=O)O)NC(=O)CCc1cc(-c2ccc(-c3ccccc3)cc2)no1 [Compound 18, (S)-5-((S)-1-amino-3-carboxy-1-oxopropan-2-ylamino)-4-(3-(3-(biphenyl-4-yl)isoxazol-5-yl)propanamido)-5-oxopentanoic acid]
Ki (MMP-9h): > 1000 nM | Ki (MMP-10h): 196 nM | Ki (MMP-8h): 832 nM | Ki (MMP-2h): 93 nM | Ki (MMP-13h): 30 nM | Ki (MMP-12h): 8 nM | Ki (MMP-14h): > 1000 nM | Ki (MMP-3h): 440 nM

NC(=O)[C@H](CCC(=O)O)NC(=O)[C@H](CCC(=O)O)NC(=O)CCc1cc(-c2ccc(-c3ccccc3)cc2)no1 [Compound 16, (S)-5-amino-4-((S)-2-(3-(3-(biphenyl-4-yl)isoxazol-5-yl)propanamido)-4-carboxybutanamido)-5-oxopentanoic acid]
Ki (MMP-9h): > 1000 nM | Ki (MMP-10h): 114 nM | Ki (MMP-8h): 383 nM | Ki (MMP-2h): 83 nM | Ki (MMP-13h): 60 nM | Ki (MMP-12h): 3.4 nM | Ki (MMP-14h): > 1000 nM | Ki (MMP-3h): 78 nM

C[C@H](NC(=O)[C@H](CCC(=O)O)NC(=O)CCc1ccc(-c2ccc(-c3ccccc3)cc2)cc1)C(N)=O [Compound 66, (S)-5-((S)-1-amino-1-oxopropan-2-ylamino)-4-(3-(4′-phenylbiphenyl-4-yl)propanamido)-5-oxopentanoic acid]
Ki (MMP-9h; read-out: Ki MMP-9h): > 10000 nM | Ki (MMP-10h; read-out: Ki MMP-10h): 130 nM | Ki (MMP-8h; read-out: Ki MMP-8h): 532 nM | Ki (MMP-2h; read-out: Ki MMP-2h): 49 nM | Ki (MMP-13h; read-out: Ki MMP-13h): 16.4 nM | Ki (MMP-12h; read-out: Ki MMP-12h): 2.2 nM | Ki (MMP-14h; read-out: Ki MMP-14h): > 10000 nM | Ki (MMP-3h; read-out: Ki MMP-3h): 238 nM

NC(=O)[C@H](CO)NC(=O)[C@H](CCC(=O)O)NC(=O)CCc1ccc(-c2ccccc2)cc1 [Compound 49, (S)-5-((S)-1-amino-3-hydroxy-1-oxopropan-2-ylamino)-4-(3-(biphenyl-4-yl)propanamido)-5-oxopentanoic acid]
Ki (MMP-9h; read-out: Ki MMP-9h): > 1000 nM | Ki (MMP-10h; read-out: Ki MMP-10h): > 1000 nM | Ki (MMP-8h; read-out: Ki MMP-8h): 204 nM | Ki (MMP-2h; read-out: Ki MMP-2h): 790 nM | Ki (MMP-13h; read-out: Ki MMP-13h): > 1000 nM | Ki (MMP-12h; read-out: Ki MMP-12h): 41 nM | Ki (MMP-14h; read-out: Ki MMP-14h): > 1000 nM | Ki (MMP-3h; read-out: Ki MMP-3h): > 5000 nM

NC(=O)[C@H](CCC(=O)O)NC(=O)[C@H](CCC(=O)O)NC(=O)CCc1ccc(-c2ncccn2)cc1 [Compound 32, (S)-5-amino-4-((S)-4-carboxy-2-(3-(4-(pyrimidin-2-yl)phenyl)propanamido)butanamido)-5-oxopentanoic acid]
Ki (MMP-9h; read-out: Ki MMP-9h): > 1000 nM | Ki (MMP-10h; read-out: Ki MMP-10h): > 5000 nM | Ki (MMP-8h; read-out: Ki MMP-8h): > 1000 nM | Ki (MMP-2h; read-out: Ki MMP-2h): > 5000 nM | Ki (MMP-13h; read-out: Ki MMP-13h): 641 nM | Ki (MMP-12h; read-out: Ki MMP-12h): 969 nM | Ki (MMP-14h; read-out: Ki MMP-14h): > 1000 nM | Ki (MMP-3h; read-out: Ki MMP-3h): > 1000 nM

NC(=O)CC[C@H](NC(=O)CCc1ccc(-c2ccc(-c3ccccc3)cc2)cc1)C(=O)N[C@@H](CCC(=O)O)C(N)=O [Compound 72, (S)-5-amino-4-((S)-5-amino-2-(3-(4′-phenylbiphenyl-4-yl)propanamido)-5-oxopentanamido)-5-oxopentanoic acid]
Ki (MMP-9h): > 5000 nM | Ki (MMP-10h): > 1000 nM | Ki (MMP-8h): > 1000 nM | Ki (MMP-2h): 386 nM | Ki (MMP-13h): 180 nM | Ki (MMP-12h): 134 nM | Ki (MMP-14h): > 5000 nM | Ki (MMP-3h): 64 nM
